# Results taken from PubChem BioAssay (NCI).
#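 Dose response: 5 concentrations. Exposure: 48 h. Format: 96-well plates. Endpoint: linear interpolation; highest concentration if not reached. TGI: total growth inhibition.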
# Columns and labels:
# Assay in all cases: NCI-60 cell line screen, 48 h
# [1] = system: NCI-H226 lung
# [2] = system: KM12 colon
# [3] = system: UACC-257 melanoma
# [4] = system: RPMI-8226 leukemia
# [5] = system: CAKI-1 renal
# [6] = system: SN12C renal
# [7] = system: MDA-N
# [8] = system: ACHN renal
# [9] = system: HCT-116 colon
# [10] = system: SK-MEL-5 melanoma
# [11] = system: MOLT-4 leukemia
# [12] = system: 786-0 renal
# [13] = system: SR leukemia
# [14] = system: OVCAR-3 ovarian
# [15] = system: SK-MEL-28 melanoma
# [16] = system: OVCAR-8 ovarian
# [17] = system: NCI-H460 lung
# [18] = system: UACC-62 melanoma
# [19] = system: SF-539 CNS
# [20] = system: UO-31 renal
# [21] = system: SK-MEL-2 melanoma
# [22] = system: CCRF-CEM leukemia
# [23] = system: HOP-62 NSCLC
# [24] = system: SW-620 colon
# [25] = system: HCC-2998 colon
# [26] = system: MCF7 breast
# [27] = system: RXF 393 renal
# [28] = system: NCI/ADR-RES ovarian
# [29] = system: NCI-H23 lung
# [30] = system: T-47D breast
# [31] = system: MALME-3M melanoma
# [32] = system: SF-268 CNS
# [33] = system: LOX IMVI melanoma
# [34] = system: MDA-MB-435
# [35] = system: NCI-H522 lung
# [36] = system: SNB-19 CNS
# [37] = system: COLO 205 colon
# [38] = system: DU-145 prostate
# [39] = system: TK-10 renal
# [40] = system: SNB-75 CNS
# [41] = system: SK-OV-3 ovarian
# [42] = system: HT29 colon
# [43] = system: EKVX NSCLC
# [44] = system: OVCAR-5 ovarian
# [45] = system: M14 melanoma
# [46] = system: IGROV1 ovarian
# [47] = system: K-562 leukemia
# [48] = system: HCT-15 colon
# [49] = system: HL-60(TB) leukemia
# [50] = system: MDA-MB-231 breast
# [51] = system: HS 578T breast
# [52] = system: PC-3 prostate
# [53] = system: A498 renal
# [54] = system: SF-295 CNS
# [55] = system: U251 CNS
# [56] = system: BT-549 breast
# [57] = system: A549 NSCLC
# [58] = system: OVCAR-4 ovarian
# [59] = system: HOP-92 NSCLC
structure (smiles),measurement,setting,value
COC(=O)C1CC2C=CC1N(C(=O)OCc1ccccc1)C2 (centres undefined),TGI,[1],> 100 µM
same,TGI,[2],> 100 µM
same,TGI,[3],> 100 µM
same,TGI,[4],> 100 µM
same,TGI,[5],> 100 µM
same,TGI,[6],> 100 µM
same,TGI,[7],> 100 µM
same,TGI,[8],> 100 µM
same,TGI,[9],> 100 µM
same,TGI,[10],> 100 µM
same,TGI,[11],> 100 µM
same,TGI,[12],> 100 µM
same,TGI,[13],> 100 µM
same,TGI,[14],> 100 µM
same,TGI,[15],> 100 µM
same,TGI,[16],> 100 µM
same,TGI,[17],> 100 µM
same,TGI,[18],> 100 µM
same,TGI,[19],> 100 µM
same,TGI,[20],> 100 µM
same,TGI,[21],> 100 µM
same,TGI,[22],> 100 µM
same,TGI,[23],> 100 µM
same,TGI,[24],> 100 µM
same,TGI,[25],> 100 µM
same,TGI,[26],> 100 µM
same,TGI,[27],> 100 µM
same,TGI,[28],> 100 µM
same,TGI,[29],> 100 µM
same,TGI,[30],> 100 µM
same,TGI,[31],> 100 µM
same,TGI,[32],> 100 µM
same,TGI,[33],> 100 µM
same,TGI,[34],> 100 µM
same,TGI,[35],43.5 µM
same,TGI,[36],> 100 µM
same,TGI,[37],> 100 µM
same,TGI,[38],> 100 µM
same,TGI,[39],> 100 µM
same,TGI,[40],> 100 µM
same,TGI,[41],> 100 µM
same,TGI,[42],> 100 µM
same,TGI,[43],> 100 µM
same,TGI,[44],> 100 µM
same,TGI,[45],> 100 µM
same,TGI,[46],> 100 µM
same,TGI,[47],> 100 µM
same,TGI,[48],> 100 µM
same,TGI,[49],> 100 µM
same,TGI,[50],> 100 µM
same,TGI,[51],> 100 µM
same,TGI,[52],> 100 µM
same,TGI,[53],> 100 µM
same,TGI,[54],> 100 µM
same,TGI,[55],> 100 µM
same,TGI,[56],> 100 µM
same,TGI,[57],> 100 µM
same,TGI,[58],> 100 µM
CC1CCC2(NC1)OC1CC3C4CCC5CC(OC6OC(CO)C(OC7OC(CO)C(O)C(OC8OCC(O)C(O)C8O)C7OC7OC(CO)C(O)C(O)C7O)C(O)C6O)CCC5(C)C4CCC3(C)C1C2C (centres undefined),TGI,[1],3.72 µM
same,TGI,[2],4.64 µM
same,TGI,[3],4.65 µM
same,TGI,[4],4.01 µM
same,TGI,[5],2.11 µM
same,TGI,[6],3.32 µM
same,TGI,[7],1.02 µM
same,TGI,[8],4.82 µM
same,TGI,[9],6.98 µM
same,TGI,[10],3.56 µM
same,TGI,[13],> 100 µM
same,TGI,[14],3.12 µM
same,TGI,[15],3.46 µM
same,TGI,[17],4.16 µM
same,TGI,[18],2.65 µM
same,TGI,[20],2.69 µM
same,TGI,[21],3.75 µM
same,TGI,[22],> 22 µM
same,TGI,[23],3.68 µM
same,TGI,[24],3.94 µM
same,TGI,[25],2.78 µM
same,TGI,[26],6.3 µM
same,TGI,[28],3.93 µM
same,TGI,[30],5.07 µM
same,TGI,[31],2.83 µM
same,TGI,[32],3.32 µM
same,TGI,[33],> 100 µM
same,TGI,[34],3.03 µM
same,TGI,[35],3.12 µM
same,TGI,[36],3.38 µM
same,TGI,[37],4 µM
same,TGI,[38],3.46 µM
same,TGI,[39],3.4 µM
same,TGI,[40],3.56 µM
same,TGI,[42],3.26 µM
same,TGI,[43],2.37 µM
same,TGI,[44],2.73 µM
same,TGI,[45],3.02 µM
same,TGI,[46],1.86 µM
same,TGI,[47],> 21.2 µM
same,TGI,[49],4.93 µM
same,TGI,[50],3.4 µM
same,TGI,[51],3.85 µM
same,TGI,[52],1.05 µM
same,TGI,[53],3.75 µM
same,TGI,[54],2.32 µM
same,TGI,[55],3.07 µM
same,TGI,[56],5.97 µM
same,TGI,[57],4.99 µM
same,TGI,[58],3.1 µM
N=C(N)SCCc1ccncc1,TGI,[1],> 100 µM
same,TGI,[2],> 100 µM
same,TGI,[3],> 100 µM
same,TGI,[4],> 100 µM
same,TGI,[5],> 100 µM
same,TGI,[6],> 100 µM
same,TGI,[7],> 100 µM
same,TGI,[8],> 100 µM
same,TGI,[9],> 100 µM
same,TGI,[10],> 100 µM
same,TGI,[11],> 100 µM
same,TGI,[12],> 100 µM
same,TGI,[13],> 100 µM
same,TGI,[14],> 100 µM
same,TGI,[15],> 100 µM
same,TGI,[16],> 100 µM
same,TGI,[17],> 100 µM
same,TGI,[18],> 100 µM
same,TGI,[19],> 100 µM
same,TGI,[20],> 100 µM
same,TGI,[21],> 100 µM
same,TGI,[22],> 100 µM
same,TGI,[23],> 100 µM
same,TGI,[24],> 100 µM
same,TGI,[26],> 100 µM
same,TGI,[27],> 100 µM
same,TGI,[28],> 100 µM
same,TGI,[29],> 100 µM
same,TGI,[30],> 100 µM
same,TGI,[59],> 100 µM
same,TGI,[32],> 100 µM
same,TGI,[33],> 100 µM
same,TGI,[34],> 100 µM
same,TGI,[36],> 100 µM
same,TGI,[37],> 100 µM
same,TGI,[38],> 100 µM
same,TGI,[39],> 100 µM
same,TGI,[40],> 100 µM
same,TGI,[41],> 100 µM
same,TGI,[42],> 100 µM
same,TGI,[43],> 100 µM
same,TGI,[44],> 100 µM
same,TGI,[45],> 100 µM
same,TGI,[46],> 100 µM
same,TGI,[47],> 100 µM
same,TGI,[48],> 100 µM
same,TGI,[49],> 100 µM
same,TGI,[50],> 100 µM
same,TGI,[51],> 100 µM
same,TGI,[52],> 100 µM
same,TGI,[53],> 100 µM
same,TGI,[54],> 100 µM
same,TGI,[55],> 100 µM
same,TGI,[56],> 100 µM
same,TGI,[57],> 100 µM
same,TGI,[58],> 100 µM
